Assay results taken from patent EP4692094A1 (Beijing Konruns Pharmaceutical Co., Ltd., priority 2023, dated 2024).

Tests used:
CYP3A = experiment: Inhibitory effect on P450 enzymes in vitro (human liver microsomes), CYP3A; type: in vitro ADME; settings: final concentration 10 µM; for inhibition at 5 min, 10 µM: probe midazolam, substrate midazolam, read-out: % inhibition rate CYP3A (midazolam); for inhibition at 10 min, 10 µM: probe testosterone, substrate testosterone, read-out: % inhibition rate CYP3A (testosterone)
Protocol: (§1) 1.1 Preparation of compounds: The compounds prepared in the examples were each dissolved in dimethylsulfoxide to give solutions at a concentration of 2 mmol/L.
(§2) 1.2 Test methods: • 1) Incubation system: human liver microsomes, a MgCl2 solution, a phosphate buffer solution, and a substrate solution were each added a 96-well deep-well plate and mixed homogenously. In the final incubation system, the concentration of the human liver microsomes was 0.2 mg/mL, and the final concentrations of the MgCl2 solution and the phosphate buffer solution were 5 mM and 100 mM, respectively. • 2) 1 µL of the substrate solution was added to the incubation system, and the final concentrations of CYP1A2 phenacetin, 2C8 paclitaxel […], 2C19 mephenytoin, 2D6 midazolam, and 3A midazolam substrates were 40 µM (phenacetin), 5 µM (paclitaxel), 50 µM (mephenytoin), 10 µM (mephenytoin), 5 µM (midazolam), and 50 µM […], respectively. • 3) 1 µL of the example compound or vehicle (DMSO) was added to the incubation system, and the incubation system was pre-warmed for 5 min in a 37 °C water bath before starting the reaction with 20 µL of 10 mM NADPH solution.
(§3) 1.3 Sample treatment: Within the designated time (20 min for phenacetin, 10 min for paclitaxel, 20 min for mephenytoin, 20 min for dextromethorphan, 5 min for midazolam, and 10 min for testosterone), 400 µL of methanol containing the internal standard was added to terminate the reaction, and the mixture was vortexed and mixed homogeneously. Then, the deep-well plate was centrifuged at 3220 g and 4 °C for 40 min. 100 µL of the supernatant was transferred into a new plate, and 150 µL of purified water was added. The mixture was mixed homogenously for LC-MS/MS analysis. Table 11. Inhibitory effects of some compounds in the examples on CYP enzymes

KAT6B = target: T1, KAT6B (Homo sapiens, UniProt Q8WYB5); experiment: Enzymatic activity assay for KAT6B acetyltransferase (TR-FRET, histone substrate H3); type: biochemical; settings: KAT6B 3 nM, Bio-H3 400 nM, AcCOA 2 µM
T1 construct: purchased active motife (Active Motif) 81224
T1 sequence (Q8WYB5 whole entry): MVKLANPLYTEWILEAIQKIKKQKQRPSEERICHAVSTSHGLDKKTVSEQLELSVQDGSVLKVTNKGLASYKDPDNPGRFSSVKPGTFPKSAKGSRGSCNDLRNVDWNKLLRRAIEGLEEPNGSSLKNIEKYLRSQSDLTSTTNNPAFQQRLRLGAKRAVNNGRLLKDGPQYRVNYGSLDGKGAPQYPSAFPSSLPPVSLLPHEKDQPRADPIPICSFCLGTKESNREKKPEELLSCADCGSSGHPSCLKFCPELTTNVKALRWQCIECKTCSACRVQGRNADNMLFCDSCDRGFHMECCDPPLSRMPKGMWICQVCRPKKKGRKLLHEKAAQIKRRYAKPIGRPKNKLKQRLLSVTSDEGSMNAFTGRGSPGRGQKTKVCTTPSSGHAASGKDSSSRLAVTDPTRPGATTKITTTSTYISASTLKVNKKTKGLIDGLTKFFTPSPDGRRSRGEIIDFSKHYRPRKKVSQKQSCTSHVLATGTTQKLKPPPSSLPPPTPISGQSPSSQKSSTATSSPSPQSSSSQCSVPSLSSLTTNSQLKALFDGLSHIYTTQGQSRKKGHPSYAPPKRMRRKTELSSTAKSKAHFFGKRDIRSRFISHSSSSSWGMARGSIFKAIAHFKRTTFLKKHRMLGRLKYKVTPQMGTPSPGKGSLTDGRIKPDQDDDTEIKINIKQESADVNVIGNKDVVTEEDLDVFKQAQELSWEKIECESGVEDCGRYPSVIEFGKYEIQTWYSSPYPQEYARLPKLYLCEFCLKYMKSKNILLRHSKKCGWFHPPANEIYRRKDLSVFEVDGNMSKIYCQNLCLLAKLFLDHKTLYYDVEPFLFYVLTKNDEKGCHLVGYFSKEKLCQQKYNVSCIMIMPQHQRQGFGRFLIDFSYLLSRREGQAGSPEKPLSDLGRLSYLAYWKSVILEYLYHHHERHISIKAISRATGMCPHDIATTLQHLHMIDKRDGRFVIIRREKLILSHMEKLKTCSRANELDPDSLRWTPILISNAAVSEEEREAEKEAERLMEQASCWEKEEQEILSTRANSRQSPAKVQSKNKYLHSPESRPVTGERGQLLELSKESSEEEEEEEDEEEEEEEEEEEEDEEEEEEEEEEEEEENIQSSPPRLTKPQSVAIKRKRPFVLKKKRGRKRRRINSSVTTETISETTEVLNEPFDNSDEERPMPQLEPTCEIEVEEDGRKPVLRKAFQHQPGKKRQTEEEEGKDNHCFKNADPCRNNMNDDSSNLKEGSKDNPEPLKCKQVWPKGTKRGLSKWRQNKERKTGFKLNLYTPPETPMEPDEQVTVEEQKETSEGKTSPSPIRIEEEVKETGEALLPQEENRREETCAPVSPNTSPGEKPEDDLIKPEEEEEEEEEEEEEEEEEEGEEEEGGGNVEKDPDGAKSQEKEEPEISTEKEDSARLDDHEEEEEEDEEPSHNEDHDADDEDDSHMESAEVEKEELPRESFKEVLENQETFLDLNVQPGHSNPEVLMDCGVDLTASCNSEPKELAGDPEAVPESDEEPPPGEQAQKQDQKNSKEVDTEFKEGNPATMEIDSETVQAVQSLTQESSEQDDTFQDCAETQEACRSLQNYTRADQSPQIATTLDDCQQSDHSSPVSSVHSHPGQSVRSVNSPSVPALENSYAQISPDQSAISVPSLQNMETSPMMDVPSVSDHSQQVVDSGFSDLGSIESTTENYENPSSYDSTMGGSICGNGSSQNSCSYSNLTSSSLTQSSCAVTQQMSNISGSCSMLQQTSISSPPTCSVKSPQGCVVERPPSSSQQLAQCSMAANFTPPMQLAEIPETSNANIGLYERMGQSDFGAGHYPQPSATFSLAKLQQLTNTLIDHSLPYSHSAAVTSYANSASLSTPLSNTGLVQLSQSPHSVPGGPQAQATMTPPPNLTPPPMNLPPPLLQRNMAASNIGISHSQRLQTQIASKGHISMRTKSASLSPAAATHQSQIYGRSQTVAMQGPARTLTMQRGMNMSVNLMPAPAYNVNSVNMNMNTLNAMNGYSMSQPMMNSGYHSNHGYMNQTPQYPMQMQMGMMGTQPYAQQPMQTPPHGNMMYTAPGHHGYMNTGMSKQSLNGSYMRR
Protocol: (§4) The acetylation effects of KAT6B on histone substrate H3, as well as KAT5, KAT7, and KAT8 on histone substrate H4, were determined using the TR-FRET (time-resolved fluorescence resonance energy transfer) method. The determination was performed according to experimental procedures similar to those in "Pharmacological Experiment I": 1.2 Preparation of compounds: The compounds prepared in the examples were each dissolved in dimethylsulfoxide to give solutions at a concentration of 10 mmol/L. • 1) The compounds in the examples were each diluted from 10 mmol/L stock solution to 0.2 mmol/L, i.e., 1 µL of the compound was added to 49 µL of DMSO, and 3-fold dilution was performed to give 10 concentrations. • 2) 50 nL of the test compounds were transferred to 384 reaction plates using Echo, two replicates for each compound, and the plates were centrifuged at a rotation speed of 1000 rpm for 1 min, the final concentration of dimethylsulfoxide (DMSO) being 0.5%. […]
(§5) For KAT8: • 3) 2.5 µL of the KAT8 enzyme solution at a final concentration of 10 nM was added to the 384 reaction plates in step 2), and the plates were centrifuged at 1000 rpm for 1 min and incubated at 25 °C for 10 min. • 4) 2.5 µL of […] at a final concentration of 300 nM and an AcCOA (acetyl-CoA) reaction solution at a final concentration of 2 µM were added to the 384 reaction plates in step 3), and the plates were centrifuged at a rotation speed of 1000 rpm for 1 min and incubated at 25 °C for 90 min. • 5) 5 µL of Eu-Ab& Ulight-SA detection solution was separately added to the 384 reaction plates in step 4) of the 4 groups described above, and the plates were centrifuged at 1000 rpm for 1 min and incubated at 25 °C for 60 min. • 6) The HTRF […] signals were read using a BMG high-throughput drug-screening multi-mode microplate reader.
(§6) The acetylation levels of the histones in the groups were analyzed by the GraphPad Prism 8 software. […]

CYP2D6 = target: T2, CYP2D6 (Homo sapiens, UniProt P10635); experiment: Inhibitory effect on P450 enzymes in vitro (human liver microsomes), CYP2D6; type: in vitro ADME; settings: probe dextromethorphan, final concentration 10 µM, substrate dextromethorphan, read-out: % inhibition rate CYP2D6 (dextromethorphan)
T2 construct: from tissue; host or cells: human liver microsomes
T2 sequence (P10635 whole entry): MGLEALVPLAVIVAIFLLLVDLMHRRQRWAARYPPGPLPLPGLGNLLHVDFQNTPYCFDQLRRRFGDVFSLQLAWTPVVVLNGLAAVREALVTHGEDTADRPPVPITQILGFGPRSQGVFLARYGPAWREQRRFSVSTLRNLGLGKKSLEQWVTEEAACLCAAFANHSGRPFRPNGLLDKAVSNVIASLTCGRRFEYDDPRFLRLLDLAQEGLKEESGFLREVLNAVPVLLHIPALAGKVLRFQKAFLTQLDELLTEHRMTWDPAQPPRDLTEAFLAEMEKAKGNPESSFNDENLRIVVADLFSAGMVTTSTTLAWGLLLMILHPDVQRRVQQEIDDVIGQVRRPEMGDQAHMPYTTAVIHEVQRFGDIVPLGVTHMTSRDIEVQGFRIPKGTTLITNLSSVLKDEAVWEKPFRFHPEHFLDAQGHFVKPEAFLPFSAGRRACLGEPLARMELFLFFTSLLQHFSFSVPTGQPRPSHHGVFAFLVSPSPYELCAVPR
Protocol: as §1, §2, §3

KAT5 = target: T3, KAT5 (Homo sapiens, UniProt Q92993); experiment: Enzymatic activity assay for KAT5 acetyltransferase (TR-FRET, histone substrate H4); type: biochemical; settings: KAT5 1.5 nM, H4 200 nM, AcCOA 2 µM
T3 construct: purchased signalChem K314-380G
T3 sequence (Q92993 whole entry): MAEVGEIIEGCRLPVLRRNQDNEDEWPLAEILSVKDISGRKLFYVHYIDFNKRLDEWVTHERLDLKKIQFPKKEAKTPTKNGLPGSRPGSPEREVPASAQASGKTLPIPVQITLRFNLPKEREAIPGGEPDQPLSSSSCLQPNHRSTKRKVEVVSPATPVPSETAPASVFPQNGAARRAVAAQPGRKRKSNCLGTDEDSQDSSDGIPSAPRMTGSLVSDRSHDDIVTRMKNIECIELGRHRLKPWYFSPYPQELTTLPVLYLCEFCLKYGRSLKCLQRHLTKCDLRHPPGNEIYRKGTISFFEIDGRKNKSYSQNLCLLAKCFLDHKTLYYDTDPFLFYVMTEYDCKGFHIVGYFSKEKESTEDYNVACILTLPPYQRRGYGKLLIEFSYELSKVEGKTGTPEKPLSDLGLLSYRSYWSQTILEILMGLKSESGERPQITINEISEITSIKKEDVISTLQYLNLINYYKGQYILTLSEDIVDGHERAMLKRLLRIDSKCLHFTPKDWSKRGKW
Protocol: as §4, §5, §6

SMILES | inhibition at 5 min, 10 µM (CYP3A) [%] | inhibition at 10 min, 10 µM (CYP3A) [%] | IC50 (KAT6B) [nM] | inhibition at 20 min, 10 µM (CYP2D6) [%] | IC50 (KAT5) [nM]
COc1cc2c(cc1S(=O)(=O)Nc1noc3cc(Cn4cccn4)nc(OC)c13)OCC2 [Example 59, N-(6-((1H-Pyrazol-1-yl)methyl)-4-methoxyisoxazolo[4,5-c]pyridin-3-yl)-5-methoxy-2,3-dihydrobenzofuran-6-sulfonamide] | -12.1 | -7.66 | 9.5 | 4.62 | 171
COc1ccc2ccoc2c1S(=O)(=O)Nc1noc2cc(Cn3cccn3)nc(OC)c12 [Example 10, N-(6-((1H-Pyrazol-1-yl)methyl)-4-methoxyisoxazolo[4,5-c]pyridin-3-yl)-6-methoxybenzofuran-7-sulfonamide] | -4.28 | -2.93 | 1.78 | 6.03 | 66.4
COc1cc2c(cc1S(=O)(=O)Nc1noc3cc(Cn4cccn4)nc(OC)c13)CCCC2 [Example 2, N-(6-((1H-Pyrazol-1-yl)methyl)-4-methoxyisoxazolo[4,5-c]pyridin-3-yl)-3-methoxy-5,6,7,8-tetrahydronaphthalene-2-sulfonamide] | -5.22 | 5.84 | 2.34 | 5.38 | 219
